Results published in ChEMBL document CHEMBL5046315, “CRCM5484: A BET-BDII Selective Compound with Differential Anti-leukemic Drug Modulation” (J Med Chem, 2022).
Active and inactive are the calls of the source.

Columns and labels:
CCRF-CEM [1] = test: Potentiation of afatinib-induced antileukemic activity against human CCRF-CEM cells at 4.3 uM in presence of bone-marrow derived stromal cell-conditioned medium; type: functional, cell-based
CCRF-CEM [2] = test: Potentiation of venetoclax-induced antileukemic activity against human CCRF-CEM cells at 4.3 uM in presence of bone-marrow derived stromal cell-conditioned medium; type: functional, cell-based
CCRF-CEM [3] = test: Potentiation of cyclopamine-induced antileukemic activity against human CCRF-CEM cells at 4.3 uM in presence of bone-marrow derived stromal cell-conditioned medium; type: functional, cell-based
U-937 [4] = test: Potentiation of SGI-110-induced antileukemic activity against human U-937 cells at 4.3 uM in presence of bone-marrow derived stromal cell-conditioned medium; type: functional, cell-based
MOLM-14 [5] = test: Potentiation of bortezomib-induced antileukemic activity against human MOLM-14 cells at 4.3 uM in presence of bone-marrow derived stromal cell-conditioned medium; type: functional, cell-based
CCRF-CEM [6] = test: Potentiation of etoposide-induced antileukemic activity against human CCRF-CEM cells at 4.3 uM in presence of bone-marrow derived stromal cell-conditioned medium; type: functional, cell-based
CCRF-CEM [7] = test: Potentiation of JQ1-induced antileukemic activity against human CCRF-CEM cells at 4.3 uM in presence of bone-marrow derived stromal cell-conditioned medium; type: functional, cell-based
U-937 [8] = test: Potentiation of JQ1-induced antileukemic activity against human U-937 cells at 4.3 uM in presence of bone-marrow derived stromal cell-conditioned medium; type: functional, cell-based
U-937 [9] = test: Potentiation of decitabine-induced antileukemic activity against human U-937 cells at 4.3 uM in presence of bone-marrow derived stromal cell-conditioned medium; type: functional, cell-based
CCRF-CEM [10] = test: Potentiation of azacitidine-induced antileukemic activity against human CCRF-CEM cells at 4.3 uM in presence of bone-marrow derived stromal cell-conditioned medium; type: functional, cell-based
CCRF-CEM [11] = test: Potentiation of birinapant-induced antileukemic activity against human CCRF-CEM cells at 4.3 uM in presence of bone-marrow derived stromal cell-conditioned medium; type: functional, cell-based
U-937 [12] = test: Potentiation of arsenic-induced antileukemic activity against human U-937 cells at 4.3 uM in presence of bone-marrow derived stromal cell-conditioned medium; type: functional, cell-based
U-937 [13] = test: Potentiation of MK2206-induced antileukemic activity against human U-937 cells at 4.3 uM in presence of bone-marrow derived stromal cell-conditioned medium; type: functional, cell-based
MOLM-14 [14] = test: Potentiation of AGI-5198-induced antileukemic activity against human MOLM-14 cells at 4.3 uM in presence of bone-marrow derived stromal cell-conditioned medium; type: functional, cell-based
MOLM-14 [15] = test: Potentiation of venetoclax-induced antileukemic activity against human MOLM-14 cells at 4.3 uM in presence of bone-marrow derived stromal cell-conditioned medium; type: functional, cell-based
CCRF-CEM [16] = test: Potentiation of vermurafenib-induced antileukemic activity against human CCRF-CEM cells at 4.3 uM in presence of bone-marrow derived stromal cell-conditioned medium; type: functional, cell-based
U-937 [17] = test: Potentiation of vincristine-induced antileukemic activity against human U-937 cells at 4.3 uM in presence of bone-marrow derived stromal cell-conditioned medium; type: functional, cell-based
U-937 [18] = test: Potentiation of azacitidine-induced antileukemic activity against human U-937 at 4.3 uM in presence of bone-marrow derived stromal cell-conditioned medium; type: functional, cell-based
CCRF-CEM [19] = test: Potentiation of asparaginase-induced antileukemic activity against human CCRF-CEM cells at 4.3 uM in presence of bone-marrow derived stromal cell-conditioned medium; type: functional, cell-based
MOLM-14 [20] = test: Potentiation of alisertib-induced antileukemic activity against human MOLM-14 cells at 4.3 uM in presence of bone-marrow derived stromal cell-conditioned medium; type: functional, cell-based
MOLM-14 [21] = test: Potentiation of docetaxel-induced antileukemic activity against human MOLM-14 cells at 4.3 uM in presence of bone-marrow derived stromal cell-conditioned medium; type: functional, cell-based
[22] = system: Acute myeloid leukemic cell; test: Potentiation of birinapant-induced antileukemic activity against patient derived mouse xenografted acute myeloid leukemic cells assessed as cell viability at 2 uM measured after 72 to 144 hrs by Cell-titre glo luminescent assay; type: functional, cell-based; settings: Homo sapiens, time lower […], time upper 144.0 hrs
[23] = molecular target: Bromodomain-containing protein 2 (Homo sapiens, UniProt P25440); test: Inhibition of BRD2-BD1 (unknown origin) incubated for 6 hrs by HTRF method
[24] = molecular target: T1, Bromodomain-containing protein 3 (Homo sapiens, UniProt Q15059); test: Inhibition of BRD3-BD1 domain (unknown origin) incubated for 6 hrs by HTRF method
[25] = molecular target: T1, Bromodomain-containing protein 3; test: Inhibition of BRD3-BD2 (unknown origin) incubated for 6 hrs by HTRF method
[26] = molecular target: Bromodomain-containing protein 4 (Homo sapiens, UniProt O60885); test: Inhibition of human partial length BRD4-BD2 (K333 to E460 residues) expressed in bacterial system at 1 uM by BROMOscan method relative to control
MOLM-14 [27] = test: Potentiation of idarubicin-induced antileukemic activity against human MOLM-14 cells at 4.3 uM in presence of bone-marrow derived stromal cell-conditioned medium; type: functional, cell-based
CCRF-CEM [28] = test: Potentiation of tipifarnib-induced antileukemic activity against human CCRF-CEM cells at 4.3 uM in presence of bone-marrow derived stromal cell-conditioned medium; type: functional, cell-based
CCRF-CEM [29] = test: Potentiation of 17AAG-induced antileukemic activity against human CCRF-CEM cells at 4.3 uM in presence of bone-marrow derived stromal cell-conditioned medium; type: functional, cell-based
CCRF-CEM [30] = test: Potentiation of cladribine-induced antileukemic activity against human CCRF-CEM cells at 4.3 uM in presence of bone-marrow derived stromal cell-conditioned medium; type: functional, cell-based
MOLM-14 [31] = test: Potentiation of SGI-110-induced antileukemic activity against human MOLM-14 cells at 4.3 uM in presence of bone-marrow derived stromal cell-conditioned medium; type: functional, cell-based
U-937 [32] = test: Potentiation of afatinib-induced antileukemic activity against human U-937 cells at 4.3 uM in presence of bone-marrow derived stromal cell-conditioned medium; type: functional, cell-based
U-937 [33] = test: Potentiation of quizartinib-induced antileukemic activity against human U-937 cells at 4.3 uM in presence of bone-marrow derived stromal cell-conditioned medium; type: functional, cell-based
MOLM-14 [34] = test: Potentiation of gileritinib-induced antileukemic activity against human MOLM-14 cells at 4.3 uM in presence of bone-marrow derived stromal cell-conditioned medium; type: functional, cell-based
CCRF-CEM [35] = test: Potentiation of carfilzomib-induced antileukemic activity against human CCRF-CEM cells at 4.3 uM in presence of bone-marrow derived stromal cell-conditioned medium; type: functional, cell-based
CCRF-CEM [36] = test: Potentiation of lapatinib-induced antileukemic activity against human CCRF-CEM cells at 4.3 uM in presence of bone-marrow derived stromal cell-conditioned medium; type: functional, cell-based
U-937 [37] = test: Potentiation of rigosertib-induced antileukemic activity against human U-937 cells at 4.3 uM in presence of bone-marrow derived stromal cell-conditioned medium; type: functional, cell-based
U-937 [38] = test: Potentiation of AG-221-induced antileukemic activity against human U-937 cells at 4.3 uM in presence of bone-marrow derived stromal cell-conditioned medium; type: functional, cell-based
MOLM-14 [39] = test: Potentiation of azacitidine-induced antileukemic activity against human MOLM-14 cells at 4.3 uM in presence of bone-marrow derived stromal cell-conditioned medium; type: functional, cell-based
MOLM-14 [40] = test: Potentiation of ruxolitinib-induced antileukemic activity against human MOLM-14 cells at 4.3 uM in presence of bone-marrow derived stromal cell-conditioned medium; type: functional, cell-based
CCRF-CEM [41] = test: Potentiation of GSK126-induced antileukemic activity against human CCRF-CEM cells at 4.3 uM in presence of bone-marrow derived stromal cell-conditioned medium; type: functional, cell-based

T1 sequence (Q15059 whole entry, the tested form may be a part): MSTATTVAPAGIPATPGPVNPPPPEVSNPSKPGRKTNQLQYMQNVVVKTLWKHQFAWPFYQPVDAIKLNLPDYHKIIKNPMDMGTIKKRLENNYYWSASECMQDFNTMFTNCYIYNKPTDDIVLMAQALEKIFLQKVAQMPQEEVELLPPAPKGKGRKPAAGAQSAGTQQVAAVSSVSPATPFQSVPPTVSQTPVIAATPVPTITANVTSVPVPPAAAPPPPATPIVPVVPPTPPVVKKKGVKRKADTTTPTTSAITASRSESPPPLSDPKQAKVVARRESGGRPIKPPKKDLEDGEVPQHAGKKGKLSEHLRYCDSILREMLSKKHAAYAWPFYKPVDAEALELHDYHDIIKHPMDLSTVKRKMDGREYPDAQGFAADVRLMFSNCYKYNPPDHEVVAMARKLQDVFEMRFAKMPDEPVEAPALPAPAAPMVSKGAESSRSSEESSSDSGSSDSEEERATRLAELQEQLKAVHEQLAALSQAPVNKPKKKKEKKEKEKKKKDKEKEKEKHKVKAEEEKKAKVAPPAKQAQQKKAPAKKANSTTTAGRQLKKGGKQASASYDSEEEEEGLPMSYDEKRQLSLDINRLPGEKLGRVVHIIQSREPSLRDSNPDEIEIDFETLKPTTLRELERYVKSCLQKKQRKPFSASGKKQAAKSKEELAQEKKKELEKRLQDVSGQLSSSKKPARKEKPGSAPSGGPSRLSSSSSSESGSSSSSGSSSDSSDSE
Chain of Bromodomain-containing protein 2 (P25440 whole entry, the tested form may be a part): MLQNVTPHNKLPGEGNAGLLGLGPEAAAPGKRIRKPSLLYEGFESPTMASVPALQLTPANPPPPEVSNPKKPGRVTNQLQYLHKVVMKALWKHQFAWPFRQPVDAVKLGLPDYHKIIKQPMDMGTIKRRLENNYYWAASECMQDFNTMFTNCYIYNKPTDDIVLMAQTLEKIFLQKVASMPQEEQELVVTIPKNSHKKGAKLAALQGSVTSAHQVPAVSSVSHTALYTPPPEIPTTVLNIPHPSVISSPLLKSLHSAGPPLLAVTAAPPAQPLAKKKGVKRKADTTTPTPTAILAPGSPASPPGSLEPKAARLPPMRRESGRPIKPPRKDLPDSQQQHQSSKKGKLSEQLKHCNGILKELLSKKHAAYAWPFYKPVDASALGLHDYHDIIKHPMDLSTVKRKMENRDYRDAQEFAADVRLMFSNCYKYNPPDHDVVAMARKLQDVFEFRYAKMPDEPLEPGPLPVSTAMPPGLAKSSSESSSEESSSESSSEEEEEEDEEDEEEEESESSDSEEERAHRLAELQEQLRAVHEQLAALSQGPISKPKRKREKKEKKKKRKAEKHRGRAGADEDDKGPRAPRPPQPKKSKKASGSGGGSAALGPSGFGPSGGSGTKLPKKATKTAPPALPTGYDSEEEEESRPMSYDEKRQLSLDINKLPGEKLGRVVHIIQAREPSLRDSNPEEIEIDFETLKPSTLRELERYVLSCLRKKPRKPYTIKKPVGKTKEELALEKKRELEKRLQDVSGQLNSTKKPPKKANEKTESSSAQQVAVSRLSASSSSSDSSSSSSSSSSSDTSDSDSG

CC(=O)N1CCc2c(sc3nc(SCC(=O)Nc4cccnc4C)n(Cc4ccco4)c(=O)c23)C1
active: Activity [22]
4.7 µM: IC50 [23]
0.02 µM: IC50 [25]
9.5 µM: IC50 [24]
41%: inhibition [26]
inactive: Activity (CCRF-CEM [1]) | Activity (CCRF-CEM [2]) | Activity (CCRF-CEM [3]) | Activity (U-937 [4]) | Activity (MOLM-14 [5]) | Activity (CCRF-CEM [6]) | Activity (CCRF-CEM [7]) | Activity (U-937 [8]) | Activity (U-937 [9]) | Activity (CCRF-CEM [10]) | Activity (CCRF-CEM [11]) | Activity (U-937 [12]) | Activity (U-937 [13]) | Activity (MOLM-14 [14]) | Activity (MOLM-14 [15]) | Activity (CCRF-CEM [16]) | Activity (U-937 [17]) | Activity (U-937 [18]) | Activity (CCRF-CEM [19]) | Activity (MOLM-14 [20]) | Activity (MOLM-14 [21]) | Activity (MOLM-14 [27]) | Activity (CCRF-CEM [28]) | Activity (CCRF-CEM [29]) | Activity (CCRF-CEM [30]) | Activity (MOLM-14 [31]) | Activity (U-937 [32]) | Activity (U-937 [33]) | Activity (MOLM-14 [34]) | Activity (CCRF-CEM [35]) | Activity (CCRF-CEM [36]) | Activity (U-937 [37]) | Activity (U-937 [38]) | Activity (MOLM-14 [39]) | Activity (MOLM-14 [40]) | Activity (CCRF-CEM [41])
